This note sets out measurements from article PMC10025235, “Pharmacological and mechanistic study of PS1, a Pdia4 inhibitor, in β-cell pathogenesis and diabetes in db/db mice” (Cellular and Molecular Life Sciences: CMLS, 2023).

pIC50: −log10 of the molar value.

The assay has as its target T1, Pdia4 (Mus musculus, UniProt P08003).
T1 construct: recombinant Pdia4; Flag-Pdia4 plasmid used in Min6 cells
T1 sequence (P08003 21-638): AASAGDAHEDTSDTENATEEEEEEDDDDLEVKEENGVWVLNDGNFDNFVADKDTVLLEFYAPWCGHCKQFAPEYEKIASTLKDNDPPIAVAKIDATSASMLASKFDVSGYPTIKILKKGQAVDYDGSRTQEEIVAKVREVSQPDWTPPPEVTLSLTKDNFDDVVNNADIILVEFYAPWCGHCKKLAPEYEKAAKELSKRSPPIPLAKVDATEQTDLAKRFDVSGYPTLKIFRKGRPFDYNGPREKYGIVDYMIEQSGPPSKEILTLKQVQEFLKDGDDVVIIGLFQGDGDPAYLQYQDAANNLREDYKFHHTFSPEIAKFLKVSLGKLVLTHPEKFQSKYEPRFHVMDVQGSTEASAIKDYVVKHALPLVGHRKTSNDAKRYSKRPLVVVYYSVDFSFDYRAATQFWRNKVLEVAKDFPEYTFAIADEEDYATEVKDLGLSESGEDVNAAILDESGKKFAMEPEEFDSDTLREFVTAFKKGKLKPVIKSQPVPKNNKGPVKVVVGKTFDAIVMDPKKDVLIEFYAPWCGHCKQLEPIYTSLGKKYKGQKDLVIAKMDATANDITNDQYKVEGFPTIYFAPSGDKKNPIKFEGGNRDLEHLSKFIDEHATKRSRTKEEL
Nature of the assay: insulin reduction turbidity assay, […] nm. It is filed as biochemical. The following applies: insulin substrate; 25 °C; 30 min.

Broadly, the pIC50 is −log10 of the IC50, conventionally taken in molar units.

Substance PS1 gave a pIC50 of 5.40.
